Data published in ChEMBL document CHEMBL1135146, “8-Methoxyquinoline-5-carboxamides as PDE4 inhibitors: a potential treatment for asthma” (Bioorg Med Chem Lett, 2002).

Experiments:
[1] = target: Phosphodiesterase 3 (Homo sapiens) (UniProt Q14432+Q13370); assay: Inhibition of Phosphodiesterase 3 (PDE3) from human platelet at 20 uM
[2] = target: Phosphodiesterase 4 (Homo sapiens, UniProt P27815+Q08499+Q07343+Q08493); assay: Inhibition of Phosphodiesterase 4 (PDE-4) from human U937 cells; format: cell-based; conditions: u-937
[3] = Tested for the half life period of the compound, intravenously; format: ADME, organism-based, Cavia porcellus; conditions: guinea pig, in vivo, iv
[4] = Tested for the oral bioavailability of the compound; format: ADME, organism-based, Cavia porcellus; conditions: guinea pig, in vivo, read-out: Bioavailabiility
[5] = Compound at a dose 5 mg/kg was administered orally to guinea pig and the pharmacokinetic parameter (Cmax) was reported; format: ADME, organism-based, Cavia porcellus; set-up: dose 5 mg/kg, route oral; conditions: in vivo, po
[6] = Tested for the pharmacokinetic parameter in guinea pig, administered orally at 5 mg/kg; format: ADME, organism-based, Cavia porcellus; set-up: dose 5 mg/kg, route oral; conditions: in vivo, po

COc1ccc(C(=O)Nc2c(Cl)cncc2Cl)c2c1nc(C(F)(F)F)n2C
inhibition [1]: 11% | IC50 [2]: 290 nM

COc1ccc(C(=O)Nc2c(Cl)cncc2Cl)c2[nH]c(C(F)(F)F)nc12
inhibition [1]: 43% | IC50 [2]: 120 nM

COc1ccc(C(=O)Nc2c(Cl)cncc2Cl)c2cccnc12
half-life [3]: 36 min | bioavailability [4]: 62% | Cmax [5]: 473 ng/mL | IC50 [2]: 170 nM | AUC [6]: 925 ng·h/mL

COc1ccc(C(=O)Nc2ccncc2)c2cccnc12
IC50 [2]: 1900 nM

COc1ccc(C(=O)Nc2c(Cl)cncc2Cl)c2cc(C(C)=O)oc12
IC50 [2]: 1 nM

COc1ccc(C(=O)Nc2ccncc2Cl)c2cccnc12
IC50 [2]: 110 nM

COc1ccc(C(=O)Nc2c(Cl)cncc2Cl)c2c1nc(C(C)=O)n2C
IC50 [2]: 480 nM
